Assay [1] relates to Alternaria alternata SDH-mutants. As to conditions: boscalid-resistant isolates carrying SDH- mutations; in vitro; cited from earlier work.
Assay [2] relates to Botrytis cinerea (BOTRCI). Briefly: In vitro microtiter plate assay, mycelial growth determined photometrically at 620nm. Type of assay: cell-based. As to conditions: succinate medium; for after 4 days EC50 [ppm]: 4 days after inoculation; for after 6 days EC50 [ppm]: 6 days after inoculation. As to the method:
(§1) In Vitro-activity against various strains of Corynespora cassiicola and Botrytis cinerea resistant to SDHIs
Pathogen: Botrytis cinerea (BOTRCI) sampled in European vineyards • 1. sensitive strain B047 • 2. resistant strain B 1 • 3. resistant strain B2 • 4. resistant strain B3 • 5. resistant strain B4 • 6. resistant strain B5 • 7. resistant strain B6
Conidia of isolates of Botrytis cinerea included in the microtiter plate assay were received from cultures grown at 20°C under black light for eight days. Conidia in steril water were used to inoculate the growth medium with 20.000 spores/well. Liquid succinate medium + 40 mg/L Enrofloxacin were used as growth medium. All isolates were tested with the following concentrations of boscalid and compound (1-1): 0 (control) 0.00192, 0.0096, 0.048, 0.24, 1.2, 6 and 30 ppm. 96-well microplates were prepared in the following way: at first, 10 µl methanol (80 %) containing the amount of active ingredient required per concentration, was added to the cavities. After evaporation of the solvent and one day prior to inoculation, 100 ul growth medium was added to each well and the plate was stirred for at least two hours on a shaker. Then, 100 ul of the spore suspension, prepared as described above, were given into each cavity. The plates were incubated at 300 rpm on a shaker for 6 days at 20°C. Mycelia growth was determined photometrically at 620nm, four and six days after inoculation. EC50 values were calculated according to the extinction values.

Assay [3] relates to Corynespora cassiicola (CORYCA). Described as above. Type of assay: cell-based. To be noted: 400 spores&mycelia / well; for after 3 days EC50 [ppm]: 3 days after inoculation; for after 5 days EC50 [ppm]: 5 days after inoculation; for after 7 days EC50 [ppm]: 7 days after inoculation. As to the method: as §1
Pathogen: Corynespora cassiicola (CORYCA) originating from cucurbits in Florida (US) • 1. sensitive strain (S011/12) • 2. resistant strain S1 • 3. resistant strain S2
Spores and mycelia of isolates of Corynespora cassiicola used in the microtiter plate assays were received from four weeks old cultures grown on PDA at 20 °C under black light. Spores and mycelia in steril water were used to inoculate the growth medium with 400 spores/mycelia per well. In the microtiter plate assay potato dextrose broth (PDB) was used as growth medium containing 25 mg/L Enrofloxacin. All isolates were tested with the following concentrations of boscalid and compound (1-1): 0 (control) 0.0064, 0.032, 0.16, 0.8, 4, 20 and 100 ppm. 96-well microplates were prepared in the following way: at first, 10 µl methanol (80 %) containing the amount of active ingredient required per concentration, was added to the cavities. After evaporation of the solvent and one day prior to inoculation, 140 ul growth medium was added to each well and the plate was stirred for at least two hours on a shaker. Then, 60 ul of the spore suspension, prepared as described above, were given into each cavity. The plates were incubated at 300 rpm on a shaker for 7 days at 24°C. Mycelia growth was determined photometrically at 620nm, three, five and seven days after inoculation. EC50 values were calculated according to the extinction values.

With `CC(C)CC(C)c1sccc1NC(=O)c1cn(C)nc1C(F)(F)F` (stereo not drawn) [penthiopyrad], in assay [1], the mycelial growth result is “not affected”.

Regarding `COC(c1ccc(Cl)cc1Cl)C(C)NC(=O)c1cn(C)nc1C(F)F` (stereo not drawn) [Compound (1-1), 3-difluoromethyl-1-methyl-1H-pyrazole-4-carboxylic acid [2-(2,4-dichlorophenyl)-2-methoxy-1-methyl-ethyl]-amide], the “after 4 days EC50 [ppm]” value in assay [2] (resistant strain B1) was 4,449 ppm; in assay [2] (resistant strain B2), 2,759 ppm; in assay [2] (resistant strain B3), 1,762 ppm; in assay [2] (resistant strain B4), 2,166 ppm; in assay [2] (resistant strain B5), 14,663 ppm; in assay [2] (resistant strain B6), 0,875 ppm. Further, the “after 4 days EC50 [ppm]” value in assay [2] (sensitive strain B047) was 0,288 ppm. In addition, the “after 6 days EC50 [ppm]” value in assay [2] (resistant strain B1) is listed as 6,467 ppm; in assay [2] (resistant strain B2), 3,073 ppm; in assay [2] (resistant strain B3) it was 1,798 ppm; in assay [2] (resistant strain B4), 1,905 ppm; in assay [2] (resistant strain B5), 18,965 ppm; in assay [2] (resistant strain B6) it was 1,390 ppm. For the same compound, the “after 6 days EC50 [ppm]” value in assay [2] (sensitive strain B047) is 0,290 ppm. The entries for the “after 3 days EC50 [ppm]” value in assay [3] (isolate S011/12 (sensitive)), in assay [3] (resistant strain S1) and in assay [3] (resistant strain S2) were 0,106 ppm, 1,204 ppm and 2,583 ppm, respectively. The “after 5 days EC50 [ppm]” value is on record as 0,368 ppm in assay [3] (isolate S011/12 (sensitive)), 1,971 ppm in assay [3] (resistant strain S1) and 7,653 ppm in assay [3] (resistant strain S2). Besides, the “after 7 days EC50 [ppm]” value in assay [3] (isolate S011/12 (sensitive)) was 0,341 ppm; in assay [3] (resistant strain S1) it was 1,635 ppm; in assay [3] (resistant strain S2), 10,162 ppm.

Consider `O=C(Nc1ccccc1-c1ccc(Cl)cc1)c1cccnc1Cl` [Boscalid], for which the “after 4 days EC50 [ppm]” value in assay [2] (resistant strain B1), in assay [2] (resistant strain B2), in assay [2] (resistant strain B3), in assay [2] (resistant strain B4), in assay [2] (resistant strain B5) and in assay [2] (resistant strain B6) was over 30 ppm throughout. For the same compound, the “after 4 days EC50 [ppm]” value in assay [2] (sensitive strain B047) is 0,286 ppm. Also, the “after 6 days EC50 [ppm]” value in assay [2] (resistant strain B1), in assay [2] (resistant strain B2), in assay [2] (resistant strain B3), in assay [2] (resistant strain B4), in assay [2] (resistant strain B5) and in assay [2] (resistant strain B6) was over 30 ppm each time. Besides, the “after 6 days EC50 [ppm]” value in assay [2] (sensitive strain B047) is listed as 0,317 ppm. Further, the “after 3 days EC50 [ppm]” value in assay [3] (isolate S011/12 (sensitive)) is 0,519 ppm; in assay [3] (resistant strain S1), over 100 ppm; in assay [3] (resistant strain S2) it was over 100 ppm. Further, the entries for the “after 5 days EC50 [ppm]” value in assay [3] (isolate S011/12 (sensitive)), in assay [3] (resistant strain S1) and in assay [3] (resistant strain S2) were 1,387 ppm, over 100 ppm and over 100 ppm, respectively. Besides, the entries for the “after 7 days EC50 [ppm]” value in assay [3] (isolate S011/12 (sensitive)), in assay [3] (resistant strain S1) and in assay [3] (resistant strain S2) were 1,225 ppm, over 100 ppm and over 100 ppm, respectively.

Take `O=C(NCCc1ncc(C(F)(F)F)cc1Cl)c1ccccc1C(F)(F)F` [fluopyram]: the mycelial growth entry in assay [1] is given as “strongly inhibited”.

Values taken from patent EP2719280A1, “Use of N-phenylethylpyrazole carboxamide derivatives or salts thereof for resistance management of phytopathogenic fungi” (priority 2012, dated 2014).
